Assay results as given in ChEMBL document CHEMBL3046469, “Fungicidal Activities of 2-(Substituted Phenoxymethyl)phenyl-2-methoxyiminoacaetamide Derivatives” (1998).

Assays:
Type in all cases: functional
[1] = test system: Pyricularia oryzae; assay: Fungicidal activity against Magnaporthe oryzae assessed as rice blast disease control at 125 ppm foliar application for 24 hr after inoculation at 27 +/- 2 degC measured after 5 days by curative manner
[2] = test system: Pyricularia oryzae; assay: Fungicidal activity against Magnaporthe oryzae assessed as rice blast disease control at 31.3 ppm foliar application for 24 hr before inoculation at 27 +/- 2 degC measured after 5 days by preventive manner
[3] = test system: Podosphaera fuliginea; assay: Fungicidal activity against Podosphaera fuliginea assessed as cucumber powdery mildew control at 31.3 ppm foliar application 24 hr before inoculation at 23 +/- 2 degC by preventive manner
[4] = test system: Podosphaera fuliginea; assay: Fungicidal activity against Podosphaera fuliginea assessed as cucumber powdery mildew control at 7.8 ppm foliar application 24 hr after inoculation at 23 +/- 2 degC by curative manner
[5] = test system: Botrytis cinerea; assay: Fungicidal activity against Botryotinia fuckeliana assessed as cucumber gray mold disease control at 125 ppm foliar application […] at 22 +/- 2 degC by curative manner
[6] = test system: Botrytis cinerea; assay: Fungicidal activity against Botryotinia fuckeliana assessed as cucumber gray mold disease control at 125 ppm foliar application […] at 22 +/- 2 degC by preventive manner
[7] = test system: Pyricularia oryzae; assay: Fungicidal activity against Magnaporthe oryzae assessed as rice blast disease control at 7.8 ppm foliar application for 24 hr before inoculation at 27 +/- 2 degC measured after 5 days by preventive manner
[8] = test system: Podosphaera fuliginea; assay: Fungicidal activity against Podosphaera fuliginea assessed as cucumber powdery mildew control at 7.8 ppm foliar application 24 hr before inoculation at 23 +/- 2 degC by preventive manner
[9] = test system: Botrytis cinerea; assay: Fungicidal activity against Botryotinia fuckeliana assessed as cucumber gray mold disease control at 7.8 ppm foliar application […] at 22 +/- 2 degC by preventive manner
[10] = test system: Blumeria graminis f. sp. tritici; assay: Fungicidal activity against Blumeria graminis f. sp. tritici assessed as wheat powdery mildew disease control at 2 ppm foliar application for 48 hr before inoculation by preventive manner
[11] = test system: Thanatephorus cucumeris; assay: Fungicidal activity against Thanatephorus cucumeris assessed as rice sheath blight disease control at 125 ppm foliar application for 24 hr before inoculation at 26 +/- 2 degC measured after 5 days by preventive manner
[12] = test system: Pseudoperonospora cubensis; assay: Fungicidal activity against Pseudoperonospora cubensis assessed as cucumber downy mildew disease control at 7.8 ppm foliar application 24 hr before inoculation onto the abaxial(untreated) surface of leaf by preventive manner
[13] = test system: Pseudoperonospora cubensis; assay: Fungicidal activity against Pseudoperonospora cubensis assessed as cucumber downy mildew disease control at 7.8 ppm foliar application 24 hr before inoculation onto the adaxial(treated) surface of leaf by preventive manner
[14] = test system: Pyricularia oryzae; assay: Fungicidal activity against Magnaporthe oryzae assessed as rice blast disease control at 125 ppm foliar application for 24 hr before inoculation at 27 +/- 2 degC measured after 5 days by preventive manner
[15] = test system: Blumeria graminis f. sp. tritici; assay: Fungicidal activity against Blumeria graminis f. sp. tritici assessed as wheat powdery mildew disease control at 125 ppm foliar application for 48 hr after inoculation by curative manner
[16] = test system: Podosphaera fuliginea; assay: Fungicidal activity against Podosphaera fuliginea assessed as cucumber powdery mildew control at 125 ppm foliar application 24 hr after inoculation at 23 +/- 2 degC by curative manner
[17] = test system: Podosphaera fuliginea; assay: Fungicidal activity against Podosphaera fuliginea assessed as cucumber powdery mildew control at 125 ppm foliar application 24 hr before inoculation at 23 +/- 2 degC by preventive manner
[18] = test system: Blumeria graminis f. sp. tritici; assay: Fungicidal activity against Blumeria graminis f. sp. tritici assessed as wheat powdery mildew disease control at 125 ppm foliar application for 48 hr before inoculation by preventive manner
[19] = test system: Podosphaera fuliginea; assay: Fungicidal activity against Podosphaera fuliginea assessed as cucumber powdery mildew control at 2 ppm foliar application 24 hr before inoculation at 23 +/- 2 degC by preventive manner
[20] = test system: Botrytis cinerea; assay: Fungicidal activity against Botryotinia fuckeliana assessed as cucumber gray mold disease control at 2 ppm foliar application […] at 22 +/- 2 degC by preventive manner
[21] = test system: Thanatephorus cucumeris; assay: Fungicidal activity against Thanatephorus cucumeris assessed as rice sheath blight disease control at 31.3 ppm foliar application for 24 hr before inoculation at 26 +/- 2 degC measured after 5 days by preventive manner
[22] = test system: Pseudoperonospora cubensis; assay: Fungicidal activity against Pseudoperonospora cubensis assessed as cucumber downy mildew disease control at 2 ppm foliar application 24 hr before inoculation onto the adaxial(treated) surface of leaf by preventive manner
[23] = test system: Pseudoperonospora cubensis; assay: Fungicidal activity against Pseudoperonospora cubensis assessed as cucumber downy mildew disease control at 125 ppm foliar application 24 hr before inoculation onto the abaxial(untreated) surface of leaf by preventive manner
[24] = test system: Blumeria graminis f. sp. tritici; assay: Fungicidal activity against Blumeria graminis f. sp. tritici assessed as wheat powdery mildew disease control at 31.3 ppm foliar application for 48 hr before inoculation by preventive manner
[25] = test system: Pseudoperonospora cubensis; assay: Fungicidal activity against Pseudoperonospora cubensis assessed as cucumber downy mildew disease control at 31.3 ppm foliar application 24 hr before inoculation onto the adaxial(treated) surface of leaf by preventive manner
[26] = test system: Botrytis cinerea; assay: Fungicidal activity against Botryotinia fuckeliana assessed as cucumber gray mold disease control at 31.3 ppm foliar application […] at 22 +/- 2 degC by preventive manner
[27] = test system: Thanatephorus cucumeris; assay: Fungicidal activity against Thanatephorus cucumeris assessed as rice sheath blight disease control at 7.8 ppm foliar application for 24 hr before inoculation at 26 +/- 2 degC measured after 5 days by preventive manner
[28] = test system: Pyricularia oryzae; assay: Fungicidal activity against Magnaporthe oryzae assessed as rice blast disease control at 2 ppm foliar application for 24 hr before inoculation at 27 +/- 2 degC measured after 5 days by preventive manner

Row | SMILES | Activity [1] [%] | Activity [5] [%] | Activity [6] [%] | Activity [7] [%] | Activity [10] [%] | Activity [11] [%] | Activity [14] [%] | Activity [16] [%] | Activity [17] [%] | Activity [18] [%] | Activity [23] [%] | other results
1 | CO/N=C(/C(=O)N(C)C)c1ccccc1COc1cc(C)ccc1C | 90 | <90 | 90 | – | – | – | – | – | – | – | – | Activity [2]: 90%; Activity [3]: 90%; Activity [4]: 90%
2 | CNC(=O)/C(=N/OC)c1ccccc1COc1cccc(C(F)(F)F)c1 | – | – | – | 90 | 90 | 90 | – | – | – | – | – | Activity [8]: 90%; Activity [9]: 90%; Activity [12]: 90%; Activity [13]: 90%
3 | CNC(=O)/C(=N\OC)c1ccccc1COc1ccc(Cl)cc1 | <90 | <90 | <90 | – | – | – | <90 | <90 | 90 | 90 | – | Activity [15]: <90%
4 | CNC(=O)/C(=N/OC)c1ccccc1COc1ccc(Cl)cc1C | – | – | – | 90 | 90 | – | – | – | – | – | – | Activity [19]: 90%; Activity [20]: 90%; Activity [21]: 90%; Activity [12]: 90%; Activity [22]: 90%
5 | CNC(=O)/C(=N\OC)c1ccccc1COc1ccccc1 | <90 | <90 | <90 | – | – | – | <90 | <90 | 90 | 90 | – | Activity [15]: <90%
6 | CNC(=O)/C(=N/OC)c1ccccc1COc1ccc(C)c(C)c1 | – | – | – | 90 | 90 | 90 | – | – | – | – | 90 | Activity [8]: 90%; Activity [9]: 90%; Activity [22]: 90%
7 | CNC(=O)/C(=N/OC)c1ccccc1COc1c(Cl)cc(Cl)cc1Cl | – | – | – | – | – | <90 | 90 | – | 90 | – | <90 | Activity [24]: 90%; Activity [25]: 90%; Activity [26]: 90%
8 | CNC(=O)/C(=N\OC)c1ccccc1COc1ccc(-c2ccccc2)cc1 | <90 | <90 | <90 | – | – | – | <90 | <90 | – | <90 | – | Activity [3]: 90%; Activity [15]: 90%
9 | CNC(=O)/C(=N/OC)c1ccccc1COc1ccccc1C(F)(F)F | – | – | – | – | 90 | – | – | – | – | – | 90 | Activity [27]: 90%; Activity [28]: 90%; Activity [8]: 90%; Activity [13]: 90%; Activity [26]: 90%
10 | CNC(=O)/C(=N/OC)c1ccccc1COc1cc(C)cc(C)c1C | – | – | – | 90 | 90 | – | – | – | – | – | 90 | Activity [27]: 90%; Activity [19]: 90%; Activity [20]: 90%; Activity [22]: 90%
11 | CO/N=C(/C(=O)NOC)c1ccccc1COc1cc(C)ccc1C | <90 | <90 | 90 | – | – | – | 90 | – | <90 | – | – | Activity [4]: 90%
12 | CNC(=O)/C(=N/OC)c1ccccc1COc1cccc(N(C)C)c1 | – | – | – | – | – | <90 | 90 | – | <90 | <90 | <90 | Activity [25]: 90%; Activity [26]: 90%
13 | CO/N=C(/C(=O)NN)c1ccccc1COc1cc(C)ccc1C | <90 | – | <90 | – | – | – | 90 | <90 | 90 | – | – | –
